From a melting point compilation (Tetko et al.; mined from patent text by program, amines drawn as free bases though some values may be those of a salt)

Work on `Cc1ccc(S(=O)(=O)N2CCN(S(=O)(=O)c3ccc(C)cc3)CC3=CC=C(CN(S(=O)(=O)c4ccc(C)cc4)CC2)S3)cc1` yielded a melting point of 265 to 268 °C. Work on `O=C1NC(=O)c2c1cc1ccc3c(c1c2C1CCCCC1)OCO3` yielded a melting point of 305 to 308 °C. Work on `Cc1ccc(-n2nc(C(C)(C)C)cc2NC(=O)Nc2ccc(OCCc3ccncc3)c3ccccc23)cn1` yielded a melting point of 189 to 190 °C. With `Cn1c(S(=O)(=O)c2ccc(C(=O)OCC(C)(C)C)c(Cl)c2)n[nH]c1=O` the melting point was 177 °C. Work on `CCCCCCCCCc1ccc(CCCC(N)(CO)CCO)cc1` (stereo unspecified) yielded a melting point of 71 to 73 °C. With `CCOC(=O)CC(=O)c1ccc(C)nn1` the melting point was 79 °C. In the case of `CC(C)c1nc(-c2cccnc2)c[nH]c1=O`, the melting point is reported as 200 to 202 °C. Compound `CNC(=O)[C@@H](C[C@H](O)[C@H](CC1CCCCC1)NC(=O)[C@H](Cc1cscn1)NC(=O)[C@@H](CC(=O)N1CCOCC1)Cc1ccccc1)C(C)(C)O` has a melting point of 150 to 152 °C. `COc1cc(OC(=O)c2cc(O)c(O)c(O)c2)ccc1OC(=O)c1cc(O)c(O)c(O)c1` showed a melting point of 214 to 216 °C. Work on `Cc1ccnc(-c2ccc(Br)cc2)c1` yielded a melting point of 126 °C. Work on `CC(C)Cn1c(C(=O)OC(C)(C)C)c(-c2ccccc2)c2cc(OCc3ccccc3)ccc2c1=O` yielded a melting point of 138 to 139 °C. Work on `O=C(NC1CCC1)c1cc(Nc2nc(Cl)nc3ccoc23)[nH]n1` yielded a melting point of 277 °C. `CC(C)=CCn1cc(C)nc1[N+](=O)[O-]` gave a melting point of 53 to 54 °C. Work on `COc1ccc(C2CCN(C(=O)NCc3ccccn3)CC2)cc1OC1CCCC1` yielded a melting point of 104 to 105 °C. In the case of `COc1cc([N+](=O)[O-])c2nccc(C)c2c1OCCCCCCCCc1ccccc1`, the melting point is reported as 39.5 to 41 °C. With `O=C(c1ccc(Cl)cc1)c1cccnc1N1CCCCC1=O` the melting point was 154 to 156 °C. With `CC(Oc1ccc(Oc2ncc(Cl)cc2F)cc1)C(=O)Nc1ccc(OC(F)(F)F)cc1` (stereo unspecified) the melting point was 92 to 93.5 °C. `CN1C(=O)CCC2(C)c3ccc(Sc4ccc5ccccc5c4)cc3CCC12` (single isomer, unassigned; (+)) showed a melting point of 138 to 140 °C. Work on `COC(=O)c1ccc(C(=O)NS(=O)(=O)c2ccc(C(=O)NCCc3ccc(OC)cc3)cc2)cn1` yielded a melting point of 240 to 242 °C. Compound `COC(=O)c1cnccc1SCc1ccc(OC)cc1` has a melting point of 108 to 110 °C. `COC(=O)c1nc(-c2ccc(Cl)c(OC)c2F)nc(N)c1Br` showed a melting point of 173 to 175 °C. With `CC(C)(C)OC(=O)Nc1ccc(-c2ccc(F)cc2)cc1[N+](=O)[O-]` the melting point was 155 to 167 °C. For `CCOc1ccccc1CNc1c(C#N)ccnc1C(N)=O`, the melting point was 150 to 152 °C. Work on `CCc1nc(OC)c(NC(=O)N2CCN(c3cc(C)cc(C)c3)CC2)cc1C(=O)Nc1cc(CO)cc(Nc2c3ccccc3nc3ccccc23)c1` yielded a melting point of 178 to 180 °C. Work on `Cc1ccccc1-c1ccc(Br)cc1C=O` yielded a melting point of 71 to 73 °C. `CC(C)C[C@H](N)C(=O)N1CCN(C(c2ccc(F)cc2)c2ccc(F)cc2)CC1` showed a melting point of 61 to 68 °C. Work on `N#Cc1c(N)nc2ccc(N3CCN(Cc4ccccc4)CC3)cc2c1NCc1ccccc1` yielded a melting point of 202 °C. For `CSc1ccc(NC(=O)NCc2cc(C(C)(C)C)c(O)c(C(C)(C)C)c2)cc1`, the melting point was 141 to 145 °C. For `Oc1ccc2c(c1)CCNC21CCSCC1`, the melting point was 211 to 213 °C. `CCOC(=O)c1[nH]c(=O)c(CC(C)C)[n+]([O-])c1N` gave a melting point of 179 to 181 °C. `CCOC(=O)c1c(C(=O)O)ccc(OC)c1OC` gave a melting point of 148 to 149 °C. With `CCOC(=O)c1ccc(NC(=O)C=C(C)c2ccc(Cl)c(Cl)c2)cc1` the melting point was 149 to 150 °C. `CC1(C)NC(=O)c2ccc(Oc3nnnn3-c3ccccc3)cc21` gave a melting point of 202 to 204 °C. `Cn1c(=O)n(Cc2ccccc2)c(=O)c2cc(I)ccc21` showed a melting point of 149 to 150 °C. For `COC(=O)C=Cc1ccc(NC(C)=O)c(OC)c1`, the melting point was 137 °C. With `BrCc1ncc(Br)cn1` the melting point was 55 to 57 °C. `COc1ccccc1N1CCC(CNC(=O)Nc2c(C(C)C)cc(N)cc2C(C)C)(c2cccc(OCCCO)c2)CC1` showed a melting point of 203 to 205 °C. `O=c1[nH]cc(-c2cnccn2)cc1Br` showed a melting point greater than 250 °C. For `Cc1cccc(N2CCN(C(=O)OC(C)(C)C)CC2)c1[N+](=O)[O-]`, the melting point was 101 to 102 °C. Work on `COc1ccc(C(=O)N2CCN(c3ccc([N+](=O)[O-])c(C=CC(=O)O)c3)CC2)cc1OC` yielded a melting point of 197 to 202 °C. Work on `CCCCN1Nn2c(c3ncnc-3c3cccnc32)N1CC(C)C` yielded a melting point of 182 to 184 °C. `Cc1ccc(C)c(NC(=O)N2CCC(C#N)CC2)c1` showed a melting point of 187 to 190 °C. For `CCCNC(=O)Nc1ccc(C(=O)c2ncc3ccccn23)cc1C(=O)OC`, the melting point was 205 °C. `Cn1nnc2c(N3CCN(Cc4ccccc4)CC3)ncnc21` gave a melting point of 91 to 92 °C. `Cc1nc2ccc3nc(O)c(O)nc3c2nc1C` showed a melting point greater than 300 °C. `CC(C)(C)OC(=O)Nc1ccc(-c2ccc(F)cc2F)cc1NC(=O)CC(=O)c1ccnc(C#N)c1` gave a melting point of 160 to 161 °C. `O=C(NC1CC1)c1cn2c(NCCCCCCNS(=O)(=O)c3ccccc3[N+](=O)[O-])nsc2n1` gave a melting point of 170 to 171 °C. `CC(C)(C)Sc1c(CC(C)(C)C(=O)O)n(Cc2ccc(Cl)cc2)c2ccc(OCc3ccc4cccnc4n3)cc12` gave a melting point of 122 °C. Compound `Cc1c(N)cccc1CO` has a melting point of 104 to 106 °C. In the case of `CCOC(=O)c1cnc(-c2ccccc2OCC)[nH]c1=O`, the melting point is reported as 144 to 149 °C. `O=C(NCC1CCN(C[C@H]2COc3ccc(Cl)cc3O2)CC1)c1ccccn1` gave a melting point of 110 to 112 °C. Work on `COC(=O)COc1ccc(NC(=O)c2cc(C(C)C)c(C(C)C)o2)cc1` yielded a melting point of 104 to 105 °C. Work on `Cc1ccc(C(=O)O)c(NS(C)(=O)=O)c1` yielded a melting point of 202 to 205 °C. Compound `N#Cc1c2ccccc2nc2ccc(Cl)cc12` has a melting point of 208 °C. Work on `O=C(Nc1nccs1)c1c(C(F)(F)F)nc2ccccc2c1O` yielded a melting point greater than 280 °C. With `CCCN(C(=O)C(F)(F)F)c1ccc(I)cc1` the melting point was 177 to 179 °C. Work on `COc1ccnc(N2CCC3(CCCN(Cc4c[nH]c5ccccc45)C3=O)CC2)n1` yielded a melting point of 190 to 191 °C. `O=C(c1ccc2scnc(=O)c2c1)N1CCCC1` gave a melting point of 232 to 234 °C. With `CCC(CC)n1cc(Cl)nc(N2CCc3cc(OC)cc(C)c32)c1=O` the melting point was 164 to 165 °C. Compound `COc1ccc(C2CCN(C(=O)C(=O)NO)CC2)cc1C=C1CCCCCC1` has a melting point of 135 to 136 °C. `O=C(c1ccccc1)c1cc2ccccc2o1` gave a melting point of 88 to 90 °C. In the case of `CC(=O)SCCc1cccc(N)n1`, the melting point is reported as 55 to 59 °C. For `Nc1nc(NCCN2CCCCC2)nc(-c2cc(Cl)ccc2Cl)n1`, the melting point was 179 to 181 °C. Compound `CC1NCc2ccsc2C1c1ccccc1` (stereo unspecified) has a melting point of 78 °C. Work on `CC(C)NC(=O)Oc1ccc2c(N(C)CCN3CCOCC3)noc2c1` yielded a melting point of 99 to 100 °C. In the case of `CC(C)c1cccc(C(C)C)c1NC(=O)[C@H](Cc1ccccc1)NC(=O)OCC1c2ccccc2-c2ccccc21`, the melting point is reported as 210 to 212 °C. Compound `Cc1cc2c(c(C(C)(C)C)c1)OP(NC1CC(C)(C)N(C)C(C)(C)C1)Oc1c(cc(C)cc1C(C)(C)C)C2` has a melting point of 207 to 216 °C. Work on `COC(=O)C1=C(C)NC(CC(=O)N2CCN(C3CCC4CCC3C4)CC2)=C(C(=O)OC)C1c1c(Cl)cccc1Cl` (stereo unspecified) yielded a melting point of 197 to 207 °C. In the case of `O=C(CCC1CCN(Cc2ccccc2)CC1)c1ccc(N2CCCC2)cc1`, the melting point is reported as 144 to 145 °C. For `CC(C)C[C@@H](C(=O)OCc1ccccc1)N1C(=O)[C@@H](N2C(=O)OC[C@@H]2c2ccccc2)[C@H]1CCc1ccccc1`, the melting point was 138 to 140 °C. In the case of `CCc1cc(C(C)(C)C)c(OP2OCC(C)(C)CO2)c(C(C)(C)C)c1CC(=O)O`, the melting point is reported as 134 to 136 °C. With `O=C1C(=O)N(C(c2ccccc2)(c2ccccc2)c2ccccc2)CCN1Cc1cc(=O)c(OCc2ccccc2)cn1Cc1ccccc1` the melting point was 165 to 168 °C. For `COc1cccc(OC2CN([C@H]3CC[C@@H](c4c[nH]c5ccc(F)cc54)CC3)C2)c1`, the melting point was 125 to 127 °C. With `N#Cc1cccnc1N1CCN(CC(=O)Nc2cccc(C(F)(F)F)c2F)CC1` the melting point was 118 to 121 °C. Compound `COC(=O)c1ccc2nc(-n3ccnc3)nc(NCCOCCO)c2c1` has a melting point of 233 to 235 °C. With `COC(=O)C(=C(C)C)N1C(=O)C(NC(=O)COc2ccccc2)C1SN1CCCCC1` (stereo unspecified) the melting point was 65 °C. For `Cc1cc(SCc2ccc(-c3ccc(C(F)(F)F)cc3)cc2)ccc1OCC(=O)O`, the melting point was 140 to 141 °C. With `N#Cc1ccc(CBr)c([N+](=O)[O-])c1` the melting point was 85 to 89 °C. In the case of `Cc1cccc(-c2ncc(NC(=O)OCc3ccccc3)c(=O)n2CC(=O)NC(Cc2ccccc2)C(=O)C(F)(F)F)c1` (stereo unspecified), the melting point is reported as 128 to 132 °C. Work on `CCOC(=O)NC1=NN(c2cccc(Cl)c2)C(=O)C1C` (stereo unspecified) yielded a melting point of 162 °C. Work on `O=C1C=C2CCCCC2N1c1ccc(O)c(Cl)c1` (stereo unspecified) yielded a melting point of 216 °C. `O=C1c2nc[nH]c2N(Cc2ccccc2)C2=NCCN12` gave a melting point of 262 to 264 °C. `COc1ccc(COc2c(O)cc3c(c2Cl)CCN(C(=O)OC(C)(C)C)CC3c2ccc(O)cc2)cc1` (stereo unspecified) showed a melting point of 190 to 192 °C. `COc1ccc(-c2ccccc2[N+](=O)[O-])cc1` gave a melting point of 55 to 56 °C. `CCCc1nc(NS(=O)(=O)c2ccc(C(C)(C)C)cc2)c(-c2ccc(C)cc2)c(OCCOc2ncc(-c3cccs3)cn2)n1` showed a melting point of 165 to 166 °C. `COc1ccc(Cn2c(Cl)nc3c(-c4ccc(Cl)o4)ncnc32)cc1` gave a melting point of 156 to 157 °C. `Clc1ccc(N2CCN(Cc3c[nH]c4ncccc34)CC2)cc1Cl` gave a melting point of 219 to 220 °C. With `CN1COc2cc(CCCN3CCOCC3)cnc21` the melting point was less than 80 °C. With `CC(=O)c1cc(-c2c(Cl)ccc(C(=O)O)c2Cl)n(C)n1` the melting point was 200 to 203 °C. Compound `N#CC1(Nc2ccccc2)CCCCC1` has a melting point of 67 to 69 °C. `COC(=O)/C(=C\C=C\c1sc2ccccc2c1C)OC` showed a melting point of 91 to 92 °C. `Cc1c(Cl)cc(N2CCN(CCCCN3C(=O)c4ccccc4S3(=O)=O)CC2)c2c1OCCO2` gave a melting point of 136 to 137 °C. In the case of `CCCCn1nc(C)c(C(=O)O)c1Cc1ccc(-c2ccccc2S(=O)(=O)NC(=O)OC(C)(C)C)cc1`, the melting point is reported as 92 to 96 °C. `Nc1c(CC(=O)O)cccc1Oc1ccc(Cl)cc1Cl` showed a melting point of 123 to 124 °C. Work on `CCOC(=O)c1cn2c(ccc3c(Cl)cccc32)n1` yielded a melting point of 193 to 194 °C. `CCCCOc1ccc(S(C)(=O)=O)cc1-c1nc2c(CC)nn(Cc3ccccn3)c2c(=O)[nH]1` gave a melting point of 189 to 191 °C.
